{
  "source": "paper PMC8691750",
  "about": "“Euphorbia Factor L2 ameliorates the Progression of K/BxN Serum-Induced Arthritis by Blocking TLR7 Mediated IRAK4/IKKβ/IRF5 and NF-kB Signaling Pathways” (Frontiers in Pharmacology, 2021)",
  "key": {"LPS-induced lung injury": {"system": "LPS-induced lung injury", "parameters": "method as in Zhang et al., 2018", "settings": "mice; ref Zhang et al., 2018; cited from earlier work"}, "IRF5": {"target": "T1, IRF5 (Mus musculus, UniProt P56477)", "T1 construct": "host or cells: RAW264.7", "T1 sequence (P56477 whole entry)": "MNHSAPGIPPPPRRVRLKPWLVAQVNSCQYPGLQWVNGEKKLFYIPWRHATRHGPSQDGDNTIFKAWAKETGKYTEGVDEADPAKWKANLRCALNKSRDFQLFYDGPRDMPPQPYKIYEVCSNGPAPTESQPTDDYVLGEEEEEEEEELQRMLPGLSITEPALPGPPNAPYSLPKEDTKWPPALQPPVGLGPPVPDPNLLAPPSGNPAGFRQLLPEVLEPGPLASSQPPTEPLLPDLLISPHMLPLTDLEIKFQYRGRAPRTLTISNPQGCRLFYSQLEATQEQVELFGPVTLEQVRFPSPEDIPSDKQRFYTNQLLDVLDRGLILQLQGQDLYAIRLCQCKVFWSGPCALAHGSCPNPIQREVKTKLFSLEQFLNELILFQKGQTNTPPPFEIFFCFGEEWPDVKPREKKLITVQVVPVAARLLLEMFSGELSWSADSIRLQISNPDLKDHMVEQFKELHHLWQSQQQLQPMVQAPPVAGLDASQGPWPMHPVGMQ", "test": "IRF5 plasmid transfection (overexpression) in RAW264.7 cells", "format": "cell-based", "settings": "RAW264.7 transfected with IRF5 plasmid", "method": "RAW264.7 cells (4×10^5 cells/well) were seeded into 6-well plates before transfection with the plasmid. When cells confluency reached 60%, RAW264.7 cells were transfected with plasmid IRF5-mouse vector (Origene, United States) using TransEasy™ Transfection Reagent (FOREGENE, China). IRF5 plasmid was suspended with transfection reagent as 1:1.5. Cells were incubated at 37°C for 24 h, then treated with EFL2 and R837 for another 24 h. The supernatant was collected for IL-1β and IL-6 measurements using ELISA kits as described above. For western blot detection, RAW264.7 cells were pretreated with EFL2 (10 µM) for 1 h and stimulated with R837 (20 μg/ml) for 40 min after IRF5 plasmid transfection. Cell lysates were prepared as described above."}, "[1]": {"system": "SMMC-7721 and Hep G2 cells", "parameters": "method as in Fan et al., 2019", "settings": "via STAT3 phosphorylation; ref Fan et al., 2019; cited from earlier work"}, "[2]": {"test": "In vivo pharmacokinetic study, plasma UPLC-MS", "parameters": "species or system C57BL/6 mice", "settings": "for Cmax: 40 mg/kg", "method": "Prior to the pharmacokinetic study, 12 male C57BL/6 mice were fasted for 12 h with free access to water, and then treated by intraperitoneal injection of EFL2 at a dose of 40 mg/kg. About 50 μL blood samples were collected via the oculi chorioideae vein at 0.5, 1, 2, 4, 8, 12, 24, 72, 96, and 168 h, respectively. After centrifugation at 5,000 rpm for 10 min, plasma samples were obtained and frozen at −80°C until analysis. The pharmacokinetic parameters of EFL2 were calculated using WinNolin 4.0.1 software.\n20 μL plasma samples were spiked with 340 μL acetonitrile by vortex mixing for 30 s. The mixture was then centrifuged at 10,000 rpm for 5 min at 4°C to separate the precipitated protein. An aliquot of 50 μL supernatant was transferred to a fresh tube and spiked with 450 μL mobile phase (acetonitrile containing 0.1% formic acid). After centrifugation at 13,000 rpm for 5 min, 3 μL supernatant was injected into Agilent 6,495 Triple Quadrupole LC/MS/MS system for each time. Then, the concentration of EFL2 was determined.\nAn Agilent 1,200 series UPLC system (Agilent Technologies, Waldbronn, Germany) equipped with an 6,495 quadruple mass spectrometer (Agilent Technologies, Santa Clara, CA, United States) were used for pharmacokinetic study. The separation was carried out with Waters Acquity UPLC BEH C18 column (2.1 × 50 mm, 1.7 μm) at a constant temperature of 30 °C. The mobile phase was composed of aqueous solution (0.1% formic acid, A) and acetonitrile (containing 0.1% formic acid, B) and the program of the mobile phase was as follows: 0 min, 40% B; 1 min, 40% B; 1.5 min, 80% B; 2.5 min, 90% B; 4 min, 90% B; 4.1 min, 40% B; 6 min, 40% B, at a flow rate of 0.3 ml/min. The mass spectra were acquired using a triple quadrupole mass spectrometer with ESI ion source in positive mode. The ionization conditions were as follows: drying gas temperature (N2), 300°C; gas flow, 11 L/min (N2); nebulizer pressure, 35 psi (N2). An Agilent Mass Hunter workstation was used for data processing."}, "[3]": {"system": "bone marrow-derived macrophages (BMDMs)", "test": "Cell viability, CCK8 assay, BMDMs", "format": "cell-based, C57BL/6 mice", "settings": "CCK8, 0.1-100 μM, 20 h", "method": "RAW264.7 cells, a mouse macrophage cell line, were cultured in DMEM medium containing 10% fetal bovine serum (FBS), 1% penicillin-streptomycin and maintained at 37 °C in 5% CO2 humidified air. Bone marrow-derived macrophages (BMDMs) generation was performed as following description. In brief, bone marrow cells were harvested from tibias and femurs of C57BL/6 mice and differentiated for 7 days in DMEM medium supplemented with 10% FBS, 1% penicillin-streptomycin and 50 ng/ml M-CSF. For human peripheral blood mononuclear cells (PBMCs) preparation, 5 ml peripheral venous blood was obtained from healthy donors in West China Hospital. PBMCs were isolated with Human Lymphocyte Separation Medium (LTS1077, Tian Jing, China) according to the manufacturer’s instructions. The experimental protocols were performed according to the approved guidelines established by the Institutional Human Research Subject Protection Committee of the Ethics Committee of West China Hospital, Sichuan University, China.\nThe effects of EFL2 on RAW264.7 cells, BMDMs and PBMCs viability were evaluated by Cell Counting Kit-8 (CCK8) assay (Dojindo, Japan). […] The optical absorbance at 450 nm was read with a Biotek Eon™ microplate reader (Biotek, Vermont, United States)."}, "[4]": {"settings": "male, C57BL/6, mouse, ip, mice, 40 mg/kg intraperitoneal injection, plasma"}},
  "data": [
    {"smiles": "C=C1C(OC(=O)c2ccccc2)CC2C(C=C(C)C(=O)C3(OC(C)=O)CC(C)C(OC(=O)c4ccccc4)C3C1OC(C)=O)C2(C)C", "note": "(centres unmarked) [EFL2, Euphorbia factor L2]", "values": [
      {"measurement": "effect on LPS-induced lung injury", "setting": "LPS-induced lung injury", "result": "robust improving effect"},
      {"measurement": "suppressive effect of EFL2 on nuclear translocation of IRF5 after overexpression of IRF5", "setting": "IRF5; EFL2 10 μM, R837", "result": "significantly reversed"},
      {"measurement": "EFL2-induced reduction of IL-1β and IL-6 after overexpression of IRF5", "setting": "IRF5; EFL2 and R837 24 h", "result": "effectively reversed"},
      {"measurement": "SMMC-7721 and Hep G2 cells proliferation and migration", "setting": "[1]", "result": "suppressing"},
      {"measurement": "peak concentration in sera", "setting": "[2]; based on Cmax and molecular weight (MW = 642.6)", "result": 7.03, "unit": "µM"},
      {"measurement": "AUC(0-inf)", "setting": "[2]; [4]", "result": "379 ± 166", "unit": "µg·h/mL"},
      {"measurement": "AUC(0-t)", "setting": "[2]; [4]", "result": "374 ± 164", "unit": "µg·h/mL"},
      {"measurement": "Tmax", "setting": "[2]; [4]", "result": "2.5 ± 1.73", "unit": "h"},
      {"measurement": "half-life", "setting": "[2]; [4]", "result": "21.2 ± 7.11", "unit": "h"},
      {"measurement": "MRT last", "setting": "[2]; male, C57BL/6, mouse, ip, mice, 40 mg/kg intraperitoneal injection, plasma, read-out: MRT0-t", "result": "59.2 ± 2.75", "unit": "h"},
      {"measurement": "MRT inf", "setting": "[2]; male, C57BL/6, mouse, ip, mice, 40 mg/kg intraperitoneal injection, plasma, read-out: MRT0-∞", "result": "61.4 ± 3.7", "unit": "h"},
      {"measurement": "Cmax", "setting": "[2]; male, C57BL/6, mouse, plasma, ip, mice, 40 mg/kg i.p.", "result": "4.52 ± 1.63", "unit": "µg/mL"},
      {"measurement": "Cmax", "setting": "[2]; male, C57BL/6, mouse, plasma, ip, mice, 40 mg/kg intraperitoneal injection", "result": 4.53, "unit": "µg/mL"},
      {"measurement": "concentration at which significant cytotoxicity is displayed", "setting": "[3]", "result": "≥ 25", "unit": "µM"}
    ]}
  ]
}
